From patent publication US8937063B2 (Trustees of Tufts College, priority 2010, dated 2015) come the findings set out here.

The test system of data set [1] is high fat+fructose (HF/HS) diet hamsters. Briefly: FPLC cholesterol subpopulation traces of pooled hamster plasma. Type of data set: in vivo, male Golden Syrian hamsters. Particulars: ARI-001 2240 mg/kg 18 days, vs vehicle. The method, then: Fast protein liquid chromatography (FPLC) was used to separate the different cholesterol subpopulations from samples of hamster plasma. Briefly, plasma from each animal within a given cohort was pooled together and applied to an AKTA liquid handling system with a Superose 6 10/300 GL column (product #14-5172-01, GE Life Sciences). 250 μL of sample was applied to the injection system, diluted with 5 mL of buffer (100 mM Na2HPO4, 100 mM NaCl, pH 7.5), loaded onto the column, and eluted with 23.5 mL of buffer at a flow rate of 1.0 mL/min, into fractions of size 0.24 mL. Each fraction was individually measured for cholesterol concentration using the total cholesterol kit from Wako as described above with the following modification: sample volume was increased to 30 μL and the reagent volume was decreased to 60 μL.
FPLC traces produce continuous curves with three distinct peaks, representing each of the cholesterol subpopultions: VLDL, LDL, and HDL. Because the column used in this experiment is a size-exclusion column, the largest particles appear first, while the smallest appear last. […]
The measured HDL values were borderline significant (p=0.06) between the 2240 mg/kg ARI-001 group and vehicle. There was a considerable increase in significance when considering the calculated HDL/TC values. […]

The subject of data set [2] is high fat-fed hamsters. As to the kind of experiment: Liver function tests (AST, ALT) in plasma of chronically dosed hamsters. Type of data set: in vivo, hamster. Particulars: vs vehicle. The method, then:
In order to investigate this, we examined the common liver functional enzymes AST and ALT in the plasma of hamsters from experiment described above in Example 3. These animals were dosed for 18 consecutive days, while being on a HF/HS diet for a total of nearly 5 weeks. We also examined the glucose levels in the plasma of these animals. For pharmacokinetic studies, we utilized wild type mice for both single and repeated administration study. Finally, pharmacokinetic studies were corroborated by data from single and repeated administration to monkeys.
This led to an investigation of liver function tests (AST, ALT) from plasma of hamsters dosed for 18 days with ARI-001. AST and ALT were measured using commercially available kits (Bio-Quant Diagnostic Kits, San Diego, Calif.). As expected, AST and ALT values from untreated hamsters (vehicle group) were very high, as the high fat diet leads to hepatomegaly and fatty liver. This disease state is reflected in the elevated AST and ALT levels.

Data set [3] has as its system healthy adult volunteers. As to the kind of experiment: Human clinical trial, single escalating oral doses: flushing. Type of data set: in vivo. Particulars: single oral doses 500 to 6000 mg; preliminary. The method, then: A randomized, double-blind, placebo-controlled study is performed with sequential escalating doses by cohort with observations for 30 hours post dosing and return visit on 8th day. Study subjects are healthy male and female adult volunteers, age 18-60 years, with LDL-C>130 mg/dL and weight <85 kg. Subjects are randomly assigned to receive study drug or placebo.
Five periods of single dose escalation, with 8 subjects per cohort (6 drug: 2 placebo) involve a total 40 subjects. Appropriately blinded matching placebos are provided. Cohort 1 receives 500 mg of ARI-001 formulated as a single oral tablet, plus eleven placebo tablets; Cohort 2, 1000 mg taken as two 500 mg tablets of ARI-001, plus ten placebo tablets; Cohort 3, 2000 mg taken as four 500 mg tablets of ARI-001, plus eight placebo tablets; Cohort 4, 4000 mg taken as eight 500 mg tablets of ARI-001, plus four placebo tablets; Corhort 5, 6000 mg taken as twelve 500 mg tablets of ARI-001. Placebo-only subjects take twelve placebo tablets. Each tablet is a compressed, film-coated tablet suitable for oral administration. […]

Regarding `O=C(O)c1ccc(CCN2CCOCC2)nc1` [ARI-001], in data set [1], the “FPLC HDL curve” value is listed as “notably larger”; the “FPLC VLDL and LDL peaks” value is on record as “considerably decreased compared to vehicle”. Moreover, the AST entry in data set [2] (2240 mg/kg oral 18 days) was “drastically reduced”. Further, in data set [2] (1120 and 2240 mg/kg oral 18 days, dose-dependent), the ALT entry is “similarly reduced”. For the same molecule, in data set [3], the signs of flushing result is given as “no patients exhibited any signs of flushing”.
